Where “and” joins values, the source holds several entries; their conditions need not be identical. Equal entries are not always repeated. Toxic doses and inconclusive results are not listed.
Test system: P388 leukemia ip, CD2F1 mice, survival T/C
Experiment: NCI In Vivo Anticancer Drug Screen. Data for tumor model P388 Leukemia (intraperitoneal) in CD2F1 (CDF1) mice
Conditions: endpoint: median survival time, higher = longer survival
Method in brief: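 Mice carrying the transplanted tumor received test compound or vehicle. Survival was recorded in each group, and the value is the treated-group measurement divided by that of the vehicle-treated control group.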

[1] = dose: 50.0 mg/kg/injection, schedule: Q01DX005 (ip), vehicle: Klucel (hydroxypropylcellulose) (HPC)
[2] = dose: 100.0 mg/kg/injection, schedule: Q01DX005 (ip), vehicle: Klucel (hydroxypropylcellulose) (HPC)
[3] = dose: 100.0 mg/kg/injection, schedule: Q04DX003 (ip), vehicle: saline with Tween-80
[4] = dose: 200.0 mg/kg/injection, schedule: Q04DX003 (ip), vehicle: saline with Tween-80
[5] = dose: 100.0 mg/kg/injection, schedule: Q01DX009 (ip), vehicle: saline
[6] = dose: 200.0 mg/kg/injection, schedule: Q01DX009 (ip), vehicle: saline
[7] = dose: 50.0 mg/kg/injection, schedule: Q01DX009 (ip), vehicle: saline
[8] = dose: 50.0 mg/kg/injection, schedule: Q01DX005 (ip), vehicle: saline with Tween-80
[9] = dose: 100.0 mg/kg/injection, schedule: Q01DX005 (ip), vehicle: saline with Tween-80
[10] = dose: 200.0 mg/kg/injection, schedule: Q01DX005 (ip), vehicle: saline with Tween-80
[11] = dose: 50.0 mg/kg/injection, schedule: Q01DX009 (ip), vehicle: saline with Tween-80
[12] = dose: 100.0 mg/kg/injection, schedule: Q01DX009 (ip), vehicle: saline with Tween-80
[13] = dose: 200.0 mg/kg/injection, schedule: Q01DX009 (ip), vehicle: saline with Tween-80
[14] = dose: 60.0 mg/kg/injection, schedule: Q01DX005 (ip), vehicle: saline with Tween-80
[15] = dose: 15.0 mg/kg/injection, schedule: Q01DX005 (ip), vehicle: saline with Tween-80
[16] = dose: 30.0 mg/kg/injection, schedule: Q01DX005 (ip), vehicle: saline with Tween-80

## NNC(N)=NC1CCCCC1
[1]
  T/C: 95 % of control
[2]
  T/C: 97 % of control

## S=c1[nH]nc(-c2ccccc2)n1C1CCCCC1
dose: 50.0 mg/kg/injection, schedule: Q04DX003 (ip), vehicle: saline with Tween-80
  T/C: 97 % of control
[3]
  T/C: 100 % of control
[4]
  T/C: 93 % of control

## O=c1c2cccnc2oc2c(Cl)cc(-c3nn[nH]n3)cc12
[1]
  T/C: 97 % of control
[2]
  T/C: 111 % of control
dose: 200.0 mg/kg/injection, schedule: Q01DX005 (ip), vehicle: Klucel (hydroxypropylcellulose) (HPC)
  T/C: 97 % of control

## C=C1CCN(c2ccc([N+](=O)[O-])cc2)C1=O
dose: 4.0 mg/kg/injection, schedule: Q01DX009 (ip), vehicle: saline + alcohol
  T/C: 94 % of control
dose: 8.0 mg/kg/injection, schedule: Q01DX009 (ip), vehicle: saline + alcohol
  T/C: 101 % of control
dose: 16.0 mg/kg/injection, schedule: Q01DX009 (ip), vehicle: saline + alcohol
  T/C: 102 % of control
dose: 32.0 mg/kg/injection, schedule: Q01DX009 (ip), vehicle: saline + alcohol
  T/C: 96 % of control
dose: 64.0 mg/kg/injection, schedule: Q01DX009 (ip), vehicle: saline + alcohol
  T/C: 88 % of control

## CCCC(C(=O)OC(C)CN1C(C)CCC1C)C1CCCC1 (centres undefined)
[5]
  T/C: 112 % of control
[6]
  T/C: 103 % of control
dose: 400.0 mg/kg/injection, schedule: Q01DX009 (ip), vehicle: saline
  T/C: 108 % of control

## CC1=CC=c2ccc3c(c2[N-]1)[N-]C(C)=CC=3.CC1=CC=c2ccc3c(c2[N-]1)[N-]C(C)=CC=3.O=[N+]([O-])O.[Cu+]
dose: 6.25 mg/kg/injection, schedule: Q04DX002 (ip), vehicle: suspension in saline
  T/C: 101 % of control
dose: 12.5 mg/kg/injection, schedule: Q04DX002 (ip), vehicle: suspension in saline
  T/C: 103 % of control

## CCOC1(C)Oc2cc3c(cc2C(c2cc(OC)c(OC)c(OC)c2)C1C)OCO3 (centres undefined)
dose: 60.0 mg/kg/injection, schedule: Q01DX005 (ip), vehicle: Klucel (hydroxypropylcellulose) (HPC)
  T/C: 96 % of control
dose: 120.0 mg/kg/injection, schedule: Q01DX005 (ip), vehicle: Klucel (hydroxypropylcellulose) (HPC)
  T/C: 100 % of control
dose: 240.0 mg/kg/injection, schedule: Q01DX005 (ip), vehicle: Klucel (hydroxypropylcellulose) (HPC)
  T/C: 98 % of control

## BrCc1cn2ccccc2n1
dose: 25.0 mg/kg/injection, schedule: Q01DX009 (ip), vehicle: saline
  T/C: 92 % of control
[7]
  T/C: 100 % of control
[5]
  T/C: 104 % of control

## C=Cn1c([N+](=O)[O-])cnc1/C=C/c1ccc(C(=O)N(CC)CC)cc1
dose: 100.0 mg/kg/injection, schedule: Q04DX002 (ip), vehicle: saline with Tween-80
  T/C: 99 % of control
dose: 200.0 mg/kg/injection, schedule: Q04DX002 (ip), vehicle: saline with Tween-80
  T/C: 100 % of control
dose: 400.0 mg/kg/injection, schedule: Q04DX002 (ip), vehicle: saline with Tween-80
  T/C: 100 % of control

## O=c1oc2ccc(Cl)cc2c2c1OC(c1ccccc1)CN2 (centres undefined)
dose: 3.13 mg/kg/injection, schedule: Q01DX009 (ip), vehicle: saline with Tween-80
  T/C: 110 % of control
dose: 6.25 mg/kg/injection, schedule: Q01DX009 (ip), vehicle: saline with Tween-80
  T/C: 110 % of control
dose: 12.5 mg/kg/injection, schedule: Q01DX009 (ip), vehicle: saline with Tween-80
  T/C: 103 % of control
dose: 25.0 mg/kg/injection, schedule: Q01DX009 (ip), vehicle: saline with Tween-80
  T/C: 103 % of control

## COC(=O)C(C)CP(=O)(O)OC (centres undefined)
dose: 50.0 mg/kg/injection, schedule: Q01DX005 (ip), vehicle: water
  T/C: 97 % of control
dose: 100.0 mg/kg/injection, schedule: Q01DX005 (ip), vehicle: water
  T/C: 98 % of control
dose: 200.0 mg/kg/injection, schedule: Q01DX005 (ip), vehicle: water
  T/C: 114 % of control

## CC1SC(C)C1O (centres undefined)
dose: 60.0 mg/kg/injection, schedule: Q01DX005 (ip), vehicle: saline
  T/C: 104 % of control
dose: 120.0 mg/kg/injection, schedule: Q01DX005 (ip), vehicle: saline
  T/C: 108 % of control
dose: 240.0 mg/kg/injection, schedule: Q01DX005 (ip), vehicle: saline
  T/C: 93 % of control

## Clc1ccccc1-n1cccc1/C=N\N=C/c1cccn1-c1ccccc1Cl
[8]
  T/C: 107 % of control
[9]
  T/C: 110 % of control and 86 % of control
[10]
  T/C: 121 % of control and 86 % of control and 90 % of control

## CCCCC(O)(c1ccc2nc(NC(=O)OC)[nH]c2c1)c1cccs1 (centres undefined)
dose: 25.0 mg/kg/injection, schedule: Q01DX005 (ip), vehicle: other
  T/C: 110 % of control
dose: 50.0 mg/kg/injection, schedule: Q01DX005 (ip), vehicle: other
  T/C: 107 % of control
dose: 100.0 mg/kg/injection, schedule: Q01DX005 (ip), vehicle: other
  T/C: 110 % of control
dose: 200.0 mg/kg/injection, schedule: Q01DX005 (ip), vehicle: other
  T/C: 104 % of control

## Cc1ccc(Cl)cc1NC(=O)N(C)CCOC(=O)Nc1cccc(Cl)c1
dose: 60.0 mg/kg/injection, schedule: Q01DX005 (ip), vehicle: Klucel + Tween-80
  T/C: 93 % of control
dose: 120.0 mg/kg/injection, schedule: Q01DX005 (ip), vehicle: Klucel + Tween-80
  T/C: 92 % of control

## COC(=O)C1=CN(C)C(c2ccccc2)C=C1 (centres undefined)
[8]
  T/C: 103 % of control
[9]
  T/C: 107 % of control
[10]
  T/C: 112 % of control

## COC1=CC2C3Cc4c(-c5cc(OC)c(O)c6c5CC5C7C=C(OC)C(=O)CC67CCN5C)cc(OC)c(O)c4C2(CCN3C)CC1=O (centres undefined)
[11]
  T/C: 97 % of control
[7]
  T/C: 105 % of control
[12]
  T/C: 102 % of control
[5]
  T/C: 94 % of control
[3]
  T/C: 104 % of control
dose: 100.0 mg/kg/injection, schedule: Q04DX003 (ip), vehicle: saline
  T/C: 95 % of control
[6]
  T/C: 105 % of control
[4]
  T/C: 106 % of control
dose: 200.0 mg/kg/injection, schedule: Q04DX003 (ip), vehicle: saline
  T/C: 93 % of control
dose: 400.0 mg/kg/injection, schedule: Q04DX003 (ip), vehicle: saline with Tween-80
  T/C: 95 % of control
dose: 400.0 mg/kg/injection, schedule: Q04DX003 (ip), vehicle: saline
  T/C: 96 % of control

## O=C(Cc1ccc(OCc2ccccc2)cc1)OCc1ccco1
[11]
  T/C: 109 % of control
[12]
  T/C: 100 % of control
[13]
  T/C: 100 % of control

## N#CC(C(=O)C(=O)Nc1cccc(C(F)(F)F)c1)c1cccc(Cl)c1 (centres undefined)
[14]
  T/C: 105 % of control
dose: 120.0 mg/kg/injection, schedule: Q01DX005 (ip), vehicle: saline with Tween-80
  T/C: 112 % of control
dose: 240.0 mg/kg/injection, schedule: Q01DX005 (ip), vehicle: saline with Tween-80
  T/C: 103 % of control

## CC(=O)O[C@H]1CC[C@@]2(C)C(CC[C@]3(C)C2CC=C2[C@@H]4CC(C)(C)CC[C@]4(C(=O)NCCN(C)C)CCC23C)C1(C)C (some centres undefined)
dose: 7.5 mg/kg/injection, schedule: Q01DX005 (ip), vehicle: saline with Tween-80
  T/C: 99 % of control
[15]
  T/C: 100 % of control
[16]
  T/C: 99 % of control
[14]
  T/C: 103 % of control

## Cc1ccc(NC(=S)C#N)c(C)c1
[15]
  T/C: 102 % of control
[16]
  T/C: 98 % of control
[14]
  T/C: 98 % of control and 106 % of control

## CN1C(=O)C/C(=N/Nc2ccccc2)NC1=O
[11]
  T/C: 95 % of control
[12]
  T/C: 100 % of control
[13]
  T/C: 92 % of control

## Nc1nc([Se]c2nc(N)nc3c2ncn3C2OC(CO)C(O)C2O)c2ncn(C3OC(CO)C(O)C3O)c2n1 (centres undefined)
dose: 25.0 mg/kg/injection, schedule: Q01DX005 (ip), vehicle: distilled water + Tween-80
  T/C: 150 % of control
dose: 50.0 mg/kg/injection, schedule: Q01DX005 (ip), vehicle: distilled water + Tween-80
  T/C: 161 % of control
dose: 100.0 mg/kg/injection, schedule: Q01DX005 (ip), vehicle: distilled water + Tween-80
  T/C: 156 % of control

## COc1cccc(NC(=S)NCc2cccnc2)c1
dose: 50.0 mg/kg/injection, schedule: Q01DX009 (ip), vehicle: Klucel (hydroxypropylcellulose) (HPC)
  T/C: 101 % of control
dose: 100.0 mg/kg/injection, schedule: Q01DX009 (ip), vehicle: Klucel (hydroxypropylcellulose) (HPC)
  T/C: 91 % of control
dose: 200.0 mg/kg/injection, schedule: Q01DX009 (ip), vehicle: Klucel (hydroxypropylcellulose) (HPC)
  T/C: 111 % of control

## c1ccc(CCC(Cc2cccnc2)c2ccccn2)nc1 (centres undefined)
dose: 100.0 mg/kg/injection, schedule: Q04DX002 (ip), vehicle: saline
  T/C: 95 % of control
dose: 200.0 mg/kg/injection, schedule: Q04DX002 (ip), vehicle: saline
  T/C: 104 % of control
